Results published in article PMC4797285 (Nucleic Acids Research, 2016).

Tests used:
[1] = system: ribosome on the mRNA (PURExpress in vitro protein synthesis kit); assay: Toe-printing assay; assay type: biochemical; details: for Position of ribosome stalling in toe-print: 100 μM thiostrepton, 50 μM clindamycin
[2] = system: ribosomes translating 2XErmBL mRNA (RTS 100 E. coli HY Kit); assay: Disome formation assay; assay type: biochemical, Escherichia coli; details: 20 μM erythromycin, positive control

| Molecule | Position of ribosome stalling in toe-print [1] | also measured |
| --- | --- | --- |
| RRIRPRPPRLPRPRPR [Bac7(1–16)] |  | Toeprint for ribosomes stalled during initiation ([1]; 100 μM peptide, signal for full-length mRNA became stronger, similar to edeine): became weaker |
| C=C(NC(=O)C(=C)NC(=O)c1csc(C2=N[C@@H]3c4csc(n4)[C@H]4NC(=O)c5csc(n5)[C@H]([C@](C)(O)[C@@H](C)O)NC(=O)[C@H]5CSC(=N5)/C(=C/C)NC(=O)[C@H]([C@@H](C)O)NC(=O)c5csc(n5)[C@]3(CC2)NC(=O)[C@H](C)NC(=O)C(=C)NC(=O)[C@H](C)NC(=O)[C@H]([C@@H](C)CC)N[C@@H]2C=Cc3c([C@H](C)O)cc(nc3[C@H]2O)C(=O)O[C@@H]4C)n1)C(N)=O [thiostrepton] | ribosomes accumulated at the AUG codon |  |
| CCC[C@@H]1C[C@@H](C(=O)N[C@@H]([C@H]2O[C@H](SC)[C@H](O)[C@@H](O)[C@H]2O)[C@H](C)Cl)N(C)C1 [clindamycin] | ribosomes accumulated at the AUG codon |  |
| CC[C@H]1OC(=O)[C@H](C)[C@@H](O[C@H]2C[C@@](C)(OC)[C@@H](O)[C@H](C)O2)[C@H](C)[C@@H](O[C@@H]2O[C@H](C)C[C@H](N(C)C)[C@H]2O)[C@](C)(O)C[C@@H](C)C(=O)[C@H](C)[C@@H](O)[C@]1(C)O [erythromycin] |  | Disome formation (translation arrest) [2]: generating the expected disome peaks |
